Test results: PubChem BioAssay (NCI)
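Five concentrations, 48 hours, 96-well plates. Here, GI50 denotes the concentration required for 50% inhibition of growth. TGI: concentration producing complete growth inhibition.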

Legend:
Assay in all cases: NCI-60 cell line screen, 48 h
BT-549 breast = tested on: BT-549 breast
HCT-116 colon = tested on: HCT-116 colon
MOLT-4 leukemia = tested on: MOLT-4 leukemia
SF-295 CNS = tested on: SF-295 CNS
SK-MEL-2 melanoma = tested on: SK-MEL-2 melanoma
SNB-19 CNS = tested on: SNB-19 CNS
SNB-75 CNS = tested on: SNB-75 CNS
SW-620 colon = tested on: SW-620 colon
U251 CNS = tested on: U251 CNS
UACC-257 melanoma = tested on: UACC-257 melanoma

SMILES | TGI (BT-549 breast) [µM] | TGI (HCT-116 colon) [µM] | TGI (MOLT-4 leukemia) [µM] | TGI (SF-295 CNS) [µM] | TGI (SK-MEL-2 melanoma) [µM] | TGI (SNB-19 CNS) [µM] | TGI (SNB-75 CNS) [µM] | TGI (SW-620 colon) [µM] | TGI (U251 CNS) [µM] | TGI (UACC-257 melanoma) [µM] | GI50 (BT-549 breast) [µM] | GI50 (MOLT-4 leukemia) [µM] | GI50 (U251 CNS) [µM]
COc1cc(C2c3cc4c(cc3OC(NNc3ccccc3)C2C)OCO4)cc(OC)c1O (centres undefined) | 28 | 13.5 | 11.2 | 11.3 | 6.35 | 32.5 | 7.56 | 21 | 16.3 | 20 | – | – | –
COc1cc(C(=O)N(C(=O)N2CCCCC2)c2ccccc2)cc(OC)c1OC | > 100 | > 100 | > 100 | > 100 | > 100 | > 100 | > 100 | > 100 | > 100 | > 100 | – | – | –
COc1ccccc1[C@@H]1CCC2CC[C@@H](c3ccccc3OC)[N+]21Cc1ccccc1 (some centres undefined) | 7.63 | 13.1 | 7.43 | 8.57 | 8.86 | 16.5 | 8.65 | 22.5 | 11.2 | 14.1 | – | – | –
O=C(c1cccnc1)N1N=C(c2ccc3c(c2)OCO3)CC1(O)c1cc(F)c(Cl)cc1Cl (centres undefined) | 47.9 | 31.2 | > 100 | 59.4 | 59.2 | > 100 | 39.8 | 84.5 | 32.9 | 51.2 | – | – | –
CCOC(=O)C(NC(=O)c1ccccc1)(Nc1ccc(S(=O)(=O)Nc2ccc(OC)nn2)cc1)C(F)(F)F (centres undefined) | > 100 | > 100 | > 100 | > 100 | > 100 | > 100 | > 100 | > 100 | > 100 | > 100 | – | – | –
O=[N+]([O-])c1ccc2c(N=Nc3ccc4ccccc4c3O)c(O)cc(S(=O)(=O)O)c2c1 | > 100 | > 100 | > 51 | > 85.7 | > 100 | > 83.2 | > 93.6 | > 100 | > 100 | > 100 | – | – | –
CN(C)CCCN=c1c2ccccc2n(C)c2[nH]c(=O)n(C)c(=O)c12 | 36.8 | > 41.8 | 12.1 | 32.5 | 9.96 | > 64.4 | 21.5 | 28.1 | 15 | 13.8 | – | – | –
CCOC(=O)[C@H](CO)Nc1c(O)c2c(c(O)c1Cl)C(=O)C=CC2=O | > 10 | > 10 | > 10 | > 10 | > 10 | > 10 | > 10 | > 10 | > 10 | > 10 | – | – | –
COc1cc(/C=C/c2ccc(S(N)(=O)=O)cc2)cc(OC)c1 | 41.1 | 27.5 | 43.9 | 55.5 | 40.3 | > 100 | 53.1 | – | > 100 | 46.8 | 10.7 | 18.6 | 17.1
O=C(NCCC1CN(S(=O)(=O)C(F)(F)F)c2ccccc21)OCc1ccccc1 (centres undefined) | > 100 | > 100 | > 100 | > 100 | > 100 | > 100 | – | > 100 | > 100 | > 100 | – | – | –
CCN(CCN(CC)C(=O)NC)C(=O)NC | > 100 | > 100 | > 100 | > 100 | > 100 | > 100 | > 100 | > 100 | > 100 | > 100 | – | – | –
COc1ccc(Oc2nc3c(N)cc(C(F)(F)F)cc3nc2-c2ccccc2)cc1 | > 100 | > 100 | > 100 | 41.2 | 25.9 | > 100 | 40.6 | > 100 | > 100 | > 100 | – | – | –
COc1c(C)c(C/C=C(\C)CCCCO)c(OC)c2ccccc12 | > 100 | 88.2 | 43.1 | > 100 | > 100 | > 100 | > 100 | > 100 | > 100 | > 100 | – | – | –
COC(=O)C1=C(C)NC2=C(C(=O)c3ccccc32)C1c1cn[nH]c1-c1ccccc1 (centres undefined) | > 100 | > 100 | > 100 | > 100 | > 100 | > 100 | > 100 | > 100 | > 100 | > 100 | – | – | –
CCOP(=O)(OCC)C(C)(CC)/N=C(\N)NC#N (centres undefined) | > 100 | > 100 | > 100 | > 100 | > 100 | > 100 | > 100 | > 100 | > 100 | > 100 | – | – | –
CCOC(=O)[C@@]12NN=N[C@@H]1[C@H]1CO[C@H](c3ccccc3)N1C2=O | 25.9 | 32.5 | > 100 | 27.5 | 21.7 | 25 | – | 25.5 | 18.4 | 19.7 | – | – | –
O=C(NCCCc1cn[nH]c(=O)n1)c1cccc2nc3ccccc3nc12 | > 100 | > 100 | > 100 | > 100 | > 100 | > 100 | – | > 100 | > 100 | > 100 | – | – | –
NCCN(CCN)/[N+]([O-])=N/O | > 100 | > 100 | > 100 | > 100 | > 100 | > 100 | > 100 | > 100 | > 100 | > 100 | – | – | –
Cc1ccc(Cc2n[nH]c(=O)n2N2C(=O)c3ccccc3C2=O)cc1 | > 100 | > 100 | > 100 | > 100 | > 100 | > 100 | > 100 | > 100 | > 100 | > 100 | – | – | –
CC(=O)OC12OC(C)(C3C(=O)N(c4ccccc4)C(=O)C31)N(c1ccccc1)C2=O (centres undefined) | > 100 | > 100 | > 100 | > 100 | > 100 | > 100 | > 100 | > 100 | > 100 | > 100 | – | – | –
COc1ccc(C=NCCCN=Cc2ccc(OC)cc2O)c(O)c1 | > 100 | > 100 | > 100 | 54.5 | > 100 | > 100 | 64.8 | > 100 | > 100 | > 100 | – | – | –
